Results as given in ChEMBL document CHEMBL1138963, “Design, synthesis, and pharmacological evaluation of R/S-3,4-dihydro-2,2-dimethyl- 6-halo-4-(phenylaminocarbonylamino)-2H-1-benzopyrans: toward tissue-selective pancreatic beta-cell KATP channel openers structurally related to (+/-)-cromakalim” (J Med Chem, 2006).

Tests used:
Pancreatic beta cell [1] = test: Residual insulin release in Wistar rat pancreatic islet beta cells in presence of glucose at 1 uM; type: functional
Pancreatic beta cell [2] = test: Selectivity ratio, IC50 for Wistar rat pancreatic islet beta cells/EC50 for aortic rings; type: functional
Pancreatic beta cell [3] = test: Residual insulin release in Wistar rat pancreatic islet beta cells in presence of glucose at 10 uM; type: functional
Pancreatic beta cell [4] = test: Inhibition of insulin release in Wistar rat pancreatic islet beta cells; type: functional, cell-based
Rattus norvegicus = organism: Rattus norvegicus; test: Myorelaxant activity against KCL-induced contraction of Wistar rat aortic rings; type: functional; conditions: Aorta

Row | IC50 (Pancreatic beta cell [4]) [µM] | EC50 (Rattus norvegicus) [µM] | SMILES | Activity (Pancreatic beta cell [1]) [%] | Selectivity ratio (Pancreatic beta cell [2]) | Activity (Pancreatic beta cell [3]) [%]
1 | 4.06 | > 30 | CC1(C)CC(NC(=O)Nc2cccc(Cl)c2)c2cc(Br)ccc2O1 (stereo not drawn) | 91.5 | <0.14 | 28.6
2 |  | > 30 | CC1(C)CC(NC(=O)Nc2ccccc2Cl)c2cc(Br)ccc2O1 (stereo not drawn) |  |  | 41.8
3 |  | > 30 | Cc1ccc(NC(=O)NC2CC(C)(C)Oc3ccc(Cl)cc32)cc1 (stereo not drawn) |  |  | 69.5
4 |  | > 10 | Cc1cccc(NC(=O)NC2CC(C)(C)Oc3ccc(Br)cc32)c1 (stereo not drawn) |  |  | 63.4
5 |  | > 300 | CC1(C)CC(NC(=O)Nc2ccccc2Cl)c2cc(Cl)ccc2O1 (stereo not drawn) |  |  | 40.3
6 |  | > 10 | COc1cccc(NC(=O)NC2CC(C)(C)Oc3ccc(F)cc32)c1 (stereo not drawn) |  |  | 66.6
7 |  | > 30 | Cc1ccc(NC(=O)NC2CC(C)(C)Oc3ccc(F)cc32)cc1 (stereo not drawn) |  |  | 70.6
8 |  | 2.3 | CC1(C)CC(NC(=O)Nc2ccccc2)c2cc(Br)ccc2O1 (stereo not drawn) |  |  | 75.9
9 |  | 15.5 | COc1ccc(NC(=O)NC2CC(C)(C)Oc3ccc(F)cc32)cc1 (stereo not drawn) |  |  | 89
10 |  | > 10 | COc1ccccc1NC(=O)NC1CC(C)(C)Oc2ccc(Br)cc21 (stereo not drawn) |  |  | 72.8
11 |  | > 30 | COc1ccc(NC(=O)NC2CC(C)(C)Oc3ccc(Cl)cc32)cc1 (stereo not drawn) |  |  | 79.3
12 |  | > 10 | COc1cccc(NC(=O)NC2CC(C)(C)Oc3ccc(Cl)cc32)c1 (stereo not drawn) |  |  | 84
13 |  | > 30 | Cc1ccccc1NC(=O)NC1CC(C)(C)Oc2ccc(Br)cc21 (stereo not drawn) |  |  | 79.5
14 |  | > 30 | Cc1cccc(NC(=O)NC2CC(C)(C)Oc3ccc(F)cc32)c1 (stereo not drawn) |  |  | 75.2
15 |  | > 10 | COc1ccc(NC(=O)NC2CC(C)(C)Oc3ccc(Br)cc32)cc1 (stereo not drawn) |  |  | 79.2
16 |  | > 10 | Cc1cccc(NC(=O)NC2CC(C)(C)Oc3ccc(Cl)cc32)c1 (stereo not drawn) |  |  | 65.8
17 |  | > 30 | CC1(C)CC(NC(=O)Nc2ccccc2Cl)c2cc(F)ccc2O1 (stereo not drawn) |  |  | 51.4
18 | 3.6 | > 30 | CC1(C)CC(NC(=O)Nc2ccc(Cl)cc2)c2cc(F)ccc2O1 (stereo not drawn) | 91.4 | <0.12 | 22.8
19 | 3.67 | > 300 | CC1(C)CC(NC(=O)Nc2cccc(Cl)c2)c2cc(F)ccc2O1 (stereo not drawn) | 86 | <0.01 | 28
20 |  | > 10 | COc1cccc(NC(=O)NC2CC(C)(C)Oc3ccc(Br)cc32)c1 (stereo not drawn) |  |  | 73.5
21 |  | > 30 | Cc1ccccc1NC(=O)NC1CC(C)(C)Oc2ccc(F)cc21 (stereo not drawn) |  |  | 79
22 |  | > 10 | Cc1ccccc1NC(=O)NC1CC(C)(C)Oc2ccc(Cl)cc21 (stereo not drawn) |  |  | 85
23 |  | 7.8 | CC1(C)CC(NC(=O)Nc2ccccc2)c2cc(Cl)ccc2O1 (stereo not drawn) |  |  | 87.7
24 |  | > 10 | COc1ccccc1NC(=O)NC1CC(C)(C)Oc2ccc(F)cc21 (stereo not drawn) |  |  | 84.4
25 |  | 17.1 | CC1(C)CC(NC(=O)Nc2ccccc2)c2cc(F)ccc2O1 (stereo not drawn) |  |  | 83.8
26 |  | > 30 | Cc1ccc(NC(=O)NC2CC(C)(C)Oc3ccc(Br)cc32)cc1 (stereo not drawn) |  |  | 72.9
27 | 3.85 | > 300 | CC1(C)CC(NC(=O)Nc2ccc(Cl)cc2)c2cc(Br)ccc2O1 (stereo not drawn) | 92.2 | <0.01 | 25.7
28 |  | > 10 | COc1ccccc1NC(=O)NC1CC(C)(C)Oc2ccc(Cl)cc21 (stereo not drawn) |  |  | 94.6
29 | > 100 | 0.13 | CC1(C)Oc2ccc(C#N)cc2C(N2CCCC2=O)C1O (racemic) [CROMAKALIM] | 95.3 | >769.23 | 94.4
